Laboratory results taken from patent US20220213052A1, “INHIBITORS OF RNA-BINDING PROTEINS, COMPOSITIONS THEREOF, AND THERAPEUTIC USES THEROF” (The University of North Carolina at Chapel Hill, priority 2019, published 2022).
Where a name gives a salt, the structure may show the parent alone. Read-outs that look alike come from different tables or passages of the source.

Experiments:
[1] = target: Musashi 2 (Msi2) (Homo sapiens, UniProt Q96DH6); experiment: Msi2 FP assay; type: binding
Description: (§1) With the FP assay of HuR-Msi1ARE binding, the inhibition of the HuR-Msi1ARE interaction by various compounds of the present technology was assessed. Similar FP assays for Musashi 2 (Msi2) and for RNA-binding protein Lin-28 homolog B (LIN28B) were also performed on various compounds of the present technology. The results of such assays for HuR are provided in Table 1 alongside the compound structures as well as ID numbers for ease of reference; the results of such assays for Msi1, Msi2, and LIN28B are provided in Table 2.

[2] = target: T1, full-length human HuR protein (Homo sapiens, UniProt Q15717); experiment: FP assay of HuR-Msi1 ARE binding inhibition; conditions: HuR-Msi1 ARE interaction; read-out: HuR Ki via FP assay
T1 construct: full-length human HuR protein was produced by the KU COBRE-PSF Protein Purification Group; made in house
Source text: (§2) A fluorescence polarization (FP)-based binding assay was utilized to assess the inhibition of HuR protein interaction with the ARE site of Msi1 mRNA (“HuR-Msi1^ARE”) by compounds of interest. Briefly, full-length human HuR protein was produced by the KU COBRE-PSF Protein Purification Group and Bcl2, Msi1 and XIAP mRNA sequences (16 nt) were designed based on literature precedent^23,24,31,32. Fluorescein labeled RNAs were purchased from Dharmacon with the following sequences: Msi1 RNA: 5′-[…]-3′-fluorescein; Bcl-2 RNA: 5′-[…]-3′-fluorescein; XIAP RNA: 5′-[…] UGUC-3′-fluorescein, and a 16-nt degenerative RNA with 3′-fluorescein label was used as a negative control.
as §1

[3] = target: T2, RNA-binding protein Lin-28 homolog B (LIN28B) (Homo sapiens, UniProt Q6ZN17); experiment: LIN28B FP assay
T2 sequence (Q6ZN17 1-250): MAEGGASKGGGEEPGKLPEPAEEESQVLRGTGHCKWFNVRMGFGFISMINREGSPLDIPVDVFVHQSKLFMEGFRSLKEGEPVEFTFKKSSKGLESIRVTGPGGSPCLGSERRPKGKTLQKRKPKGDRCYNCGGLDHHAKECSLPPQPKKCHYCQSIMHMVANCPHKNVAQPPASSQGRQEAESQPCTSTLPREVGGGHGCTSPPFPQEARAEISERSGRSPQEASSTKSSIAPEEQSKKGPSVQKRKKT
Description: as §1

[4] = test system: MDA-MB-231 cells; experiment: Matrigel invasion assay; type: cell-based; conditions: 24 h pretreatment, 20 h incubation
Description: To examine the anti-metastatic effect of compounds of the present technology, an invasion assay using Matrigel Invasion Chambers coated with Matrigel Matrix was performed. To perform the assays, MDA-MB-231 cells pretreated with compounds for 24 hours are added to the chambers and then incubated for 20 hours. Cells that remained on the upper surface of the chamber are completely removed with a cotton swab. Cells that emigrated or invaded through the membrane/Matrigel to the bottom of the chamber were fixed and stained with 0.2% crystal violet and photographed.

[5] = target: T3, HuR-bound target mRNAs in MDA-MB-231 cells (Homo sapiens, UniProt Q15717); experiment: Ribonucleoprotein immunoprecipitation (RNP-IP) pull-down assay; type: cell-based
T3 construct: endogenous in cells; host or cells: MDA-MB-231
Description: Pull-down Assay #2—Ribonuleoprotein Immunoprecipitation (RNP-IP): Cells with HuR overexpression were treated with compounds, then the cell cytoplasmic lysates collected using NE-PER Nuclear and Cytoplasmic Extraction Kit (Thermo Scientific), then the cell cytoplasmic lysates incubated with anti-HuR antibody, and subsequently Protein G agarose beads (from Roche) added to pull down HuR protein. The HuR-bound target mRNAs pulled down were measured by qRT-PCR using a reported method (Ji, Q., et al., MicroRNA miR-34 inhibits human pancreatic cancer tumor-initiating cells. PLoS One, 2009. 4(8): p. e6816, incorporated herein by reference). Mouse IgG will be used as negative control. Compounds of the present technology block the target mRNAs pulled down by HuR antibody.

[6] = test system: MDA-MB-231 HuR knockout clones (HuR KO1 and HuR KO2); experiment: Cytotoxicity against HuR knockout clones of MDA-MB-231; type: cell-based; conditions: HuR KO1 and HuR KO2 vs MDA-MB-231 and sgControl
Description: (§3) The cytotoxicity of various compounds of the present technology in several cancer cell lines (pancreatic cancer cell line MIAPaCa-2, triple-negative breast cancer cell line MDA-MB-231, and colon cancer cell lines HCT116, HCT116 β/W, and RKO) was assessed by a cytotoxicity assay. Cells were seeded in 96-well culture plates (3,000-5,000 cells/well) and treated with titrated compounds in triplicate. After 96 h incubation, cell growth medium was removed and proliferation reagent WST-8 (Sigma) was added to each well and incubated at 37° C. for 1-3 h. Absorbance was then measured with a plate reader at 450 nm with correction at 650 nm. The results were expressed as the percentage of absorbance of treated wells versus that of vehicle control. IC50, the drug concentration causing 50% growth inhibition, was calculated via sigmoid curve fitting using GraphPad Prism 5.0. The results for those compounds tested against MIAPaCa-2 and MDA-MB-231 are provided in Table 1; the results for those compounds tested against colon cancer cell lines HCT116, HCT116 β/W, and RKO are provided in Table 3.
The cytotoxicity of KH-39 and KH-58 against HuR knockout clones was probed by the same assay as described above. […]

[7] = test system: triple-negative breast cancer cell line MDA-MB-231; experiment: Cytotoxicity assay (WST-8), MDA-MB-231; type: cell-based; conditions: Homo sapiens, 96 h incubation
Description: as §3

[8] = target: T4, HuR protein bound to ARE^Msi1-Biotin (Homo sapiens, UniProt Q15717); experiment: RNA immunoprecipitation (RNA-IP) pull-down assay; type: cell-based
T4 construct: endogenous in cells; cytoplasmic lysate
Description: Pull-down Assay #1—RNA Immunoprecipitation (RNA-IP): Cells with HuR overexpression will be treated with compounds, then the cell cytoplasmic lysates were collected using NE-PER Nuclear and Cytoplasmic Extraction Kit (Thermo Scientific), and subsequently to the cell cytoplasmic lysates were added the biotinylated target ARE oligo from Msi1 mRNA (ARE^Msi1-Biotin). Following this, streptavidin beads were added to pull down HuR protein bound to ARE^Msi1-Biotin. Unlabeled target AREs used as positive control. Compounds of the present technology block the HuR pull-down by the biotinylated ARE oligo, illustrating inhibition of the HuR-mRNA interaction. For example, using 20 μM KH-39, 20 μM KH-56, and 10 μM KH-58 in such a RNA-IP assay provided the data illustrated in FIG. 5. The numbers immediately below the pictured bands in FIG. 5 are calculated by diving the band intensity of the particular sample by the band intensity of the DMSO treated sample (entry 3). […]

[9] = test system: colon cancer cell line SW480; experiment: Cytotoxicity assay (WST-8), SW480; type: cell-based; conditions: Homo sapiens, 96 h incubation
[10] = target: Msi1 (Homo sapiens, UniProt O43347); experiment: Msi1 FP assay; type: binding
Description: as §1

[11] = test system: colon cancer cell line HCT116; experiment: Cytotoxicity assay (WST-8), HCT116; type: cell-based; conditions: Homo sapiens, HCT-116, 96 h incubation
Description: as §3

[12] = test system: colon cancer cell line RKO; experiment: Cytotoxicity assay (WST-8), RKO; type: cell-based; conditions: 96 h incubation
Description: as §3

[13] = test system: colon cancer cell line HCT116 β/W; experiment: Cytotoxicity assay (WST-8), HCT116 β/W; type: cell-based; conditions: Homo sapiens, HCT-116, 96 h incubation
Description: as §3

[14] = test system: HuR targets in MDA-MB-231 cells; experiment: Western blot analysis of HuR targets and cell death markers; type: cell-based
Source text: As HuR promotes stability of its target mRNAs, it is expected that HuR-inhibitors will block HuR function and shorten the half-life (t1/2) of target mRNAs. mRNA stability will be determined via quantitative real-time PCR (qRT-PCR) after co-treatment of compounds of the present technology and Actinomycin D (a transcription inhibitor). Because HuR also increases the translation of target mRNAs, the effect of compounds of the present technology on protein levels of HuR targets was probed by Western blot analysis.

[15] = test system: pancreatic cancer cell line MIAPaCa-2; experiment: Cytotoxicity assay (WST-8), MIAPaCa-2; type: cell-based; conditions: Homo sapiens, MIA PaCa-2, 96 h incubation
Description: as §3

[16] = target: T1, full-length human HuR protein; experiment: FP-based binding of full length HuR to fluorescein-labeled target RNAs; conditions: 16 nt RNA oligo, 3′-fluorescein
Description: FIG. 3 provides the results of a fluorescence polarization (FP)-based binding assay, illustrating that full length HuR binds to FITC-Bcl-2, Msi1, and XIAP RNA but not to scrambled oligo-FITC. The concentration of FITC-RNA used in the assay is 2 nM.
as §2

[17] = cell marked (RRM1), read-out: Msi2 (Ki) (RRM1)

Chain of Musashi 2 (Msi2) (Q96DH6 whole entry, species assumed): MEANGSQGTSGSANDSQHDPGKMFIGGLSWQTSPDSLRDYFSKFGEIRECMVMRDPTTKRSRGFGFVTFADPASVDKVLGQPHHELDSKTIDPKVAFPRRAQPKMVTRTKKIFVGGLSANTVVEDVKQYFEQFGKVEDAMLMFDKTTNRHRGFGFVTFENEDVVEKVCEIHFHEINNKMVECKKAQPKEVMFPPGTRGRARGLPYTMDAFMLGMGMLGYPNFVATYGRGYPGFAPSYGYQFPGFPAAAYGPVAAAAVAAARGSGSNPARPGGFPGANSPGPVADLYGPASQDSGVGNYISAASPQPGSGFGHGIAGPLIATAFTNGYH
T1 sequence (Q15717 whole entry): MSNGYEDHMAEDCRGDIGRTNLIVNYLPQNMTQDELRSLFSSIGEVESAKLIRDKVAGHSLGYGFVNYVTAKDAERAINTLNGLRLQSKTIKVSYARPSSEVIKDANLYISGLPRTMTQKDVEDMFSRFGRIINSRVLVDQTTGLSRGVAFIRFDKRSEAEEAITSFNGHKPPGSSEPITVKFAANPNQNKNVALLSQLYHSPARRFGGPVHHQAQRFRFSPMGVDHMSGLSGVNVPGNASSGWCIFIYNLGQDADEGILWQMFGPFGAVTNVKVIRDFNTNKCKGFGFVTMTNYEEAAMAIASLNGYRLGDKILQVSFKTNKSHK
T4 sequence (Q15717 2-326 limits assumed): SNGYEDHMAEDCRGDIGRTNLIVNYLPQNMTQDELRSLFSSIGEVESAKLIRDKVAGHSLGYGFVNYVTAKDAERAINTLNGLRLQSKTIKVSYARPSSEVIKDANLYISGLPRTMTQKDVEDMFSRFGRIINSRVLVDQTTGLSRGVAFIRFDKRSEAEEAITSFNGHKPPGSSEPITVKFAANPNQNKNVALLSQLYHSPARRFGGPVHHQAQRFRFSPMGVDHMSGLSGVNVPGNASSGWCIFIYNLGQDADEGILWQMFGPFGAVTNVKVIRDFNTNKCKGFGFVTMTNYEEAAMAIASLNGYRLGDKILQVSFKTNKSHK
T3 sequence (Q15717 2-326 limits assumed): as above
Chain of Msi1 (O43347 whole entry, species assumed): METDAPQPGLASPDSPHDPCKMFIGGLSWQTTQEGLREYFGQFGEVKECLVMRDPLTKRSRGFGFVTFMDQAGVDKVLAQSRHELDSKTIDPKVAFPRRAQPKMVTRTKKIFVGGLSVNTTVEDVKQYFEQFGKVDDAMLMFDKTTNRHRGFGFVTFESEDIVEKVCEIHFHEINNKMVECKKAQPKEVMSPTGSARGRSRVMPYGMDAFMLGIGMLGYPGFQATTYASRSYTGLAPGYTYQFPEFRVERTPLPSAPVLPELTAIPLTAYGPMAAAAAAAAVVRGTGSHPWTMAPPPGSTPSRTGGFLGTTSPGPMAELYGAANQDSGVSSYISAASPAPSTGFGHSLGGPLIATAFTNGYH

Compound `CN(C)c1ccc(C(=O)Nc2ccc3sc(C(=O)NO)cc3c2)cc1` [KH-58, 5-(4-(dimethylamino)benzamido)-N-hydroxybenzo[b]thiophene-2-carboxamide] has a Ki [1, 17] of 3.35 µM, a Ki [2] of 610 nM and a Ki [3] of 4.57 µM. The MDA-MB-231 cell invasion ([4]; 5 μM) was “clearly inhibited MDA-MB-231 cell invasion”, the “HuR pull-down of target mRNAs” value ([5]; 5 μM) was “at least partially block HuR pull-down of target mRNAs” and the “IC50 of HuR KO clones versus parental cells and vector control cells” value [6] was “two to three folds higher IC50 values”. For the same compound, the IC50 [7] was 1310 nM and the “ARE^Msi1-Biotin mediated pull-down of HuR protein” value ([8]; 10 μM) was “block ARE^Msi1-Biotin mediated pull-down of HuR protein”.
With `O=C(Nc1ccc2[nH]c(C(=O)NO)cc2c1)c1ccccn1` [KH-56, N-hydroxy-5-(picolinamido)-1H-indole-2-carboxamide hydrochloride] the Ki ([1]; cell without (RRM1) mark, read-out: Msi2 (Ki)) was over 20 µM, the Ki [2] was over 20000 nM and the Ki [3] was over 20 µM. For the same compound, the MDA-MB-231 cell invasion ([4]; 10 μM) was “did not provide a statistically significant difference”, the “HuR pull-down of target mRNAs” value ([5]; 10 μM) was “did not provide results statistically distinguishable from vehicle control” and the IC50 [7] was 75300 nM. The “ARE^Msi1-Biotin mediated pull-down of HuR protein” value ([8]; 20 μM) was “did not show pull-down of HuR protein”.
For `CC(C)(C)c1ccc(C(=O)Nc2ccc3sc(/C=C/C(=O)NO)cc3c2)cc1` [KH-19, (E)-4-(tert-butyl)-N-(2-(3-(hydroxyamino)-3-oxoprop-1-en-1-yl)benzo[b]thiophen-5-yl)benzamide], the IC50 [9] was 5.14 µM, the Ki [1, 17] was 0.45 µM and the Ki [10] was 1970 nM. It also gave an IC50 [11] of 2220 nM, a Ki [2] of 150 nM and an IC50 [12] of 4.48 µM. For the same compound, the IC50 [13] was 2630 nM, the Ki [3] was 3.2 µM and the “cell death mechanisms: PARP cleavage, LC3 conversion, RIP3 activation” value [14] was “induced cell death through apoptosis, autophagy and necroptosis”. The “protein levels of HuR targets” value [14] was “decreased the protein levels of HuR targets”, the MDA-MB-231 cell invasion ([4]; concentrations indicated in FIG. 8) was “inhibited MDA-MB-231 cell invasion” and the IC50 [15] was 2340 nM. It also gave an IC50 [7] of 1330 nM.
“5′-AAAAGAUUUAUUUAUU-3′-fluorescein (3'-fluorescein, further chemistry not given here) [Bcl-2 RNA, Fluorescein labeled 16 nt RNA purchased from Dharmacon]” was tested, and the Kd [16] was 6.3 nM.
“5′-UAGUUAUUUUUA UGUC-3′-fluorescein (UAGUUAUUUUUAUGUC; 3'-fluorescein, further chemistry not given here) [XIAP RNA, Fluorescein labeled 16 nt RNA purchased from Dharmacon]” gave a Kd [16] of 3.5 nM.
“5′-GCUUUUAUUUAUUUUG-3′-fluorescein (3'-fluorescein, further chemistry not given here) [Msi1 RNA, Fluorescein labeled 16 nt RNA purchased from Dharmacon]” showed a Kd [16] of 2 nM.
